Reference: ChEMBL document CHEMBL6092203, “Discovery of Novel PROTAC-Based HPK1 Degraders with High Potency and Selectivity for Cancer Immunotherapy” (J Med Chem, 2024)
Activity calls are given as the source filed them. The calls are words filed in the database; no cut-off is given here.

Assays:
[1] = tested on: MC-38; test: Synergistic antitumor activity against mouse MC38 cells implanted in C57BL/6J mouse assessed as tumor weight inhibition rate at 0.5 mg/kg, po bid measured after 4 weeks in presence of 5 mg/kg anti-PD1 and measured twice a week; assay type: functional; design: scale not given: the % may be the effect or the level left
[2] = AUC(0 to 24 hrs) in male Sprague-Dawley rat at 100 mg/kg/day, po measured at day 1; assay type: ADME, organism-based; settings: in vivo, time 1 day
[3] = Toxicity in Sprague-Dawley rat assessed as efficacy dose measured after 14 days; settings: in vivo, 336 h, time 14 day
[4] = in vivo; settings: male, Sprague-Dawley, rat, po, 30 mg/kg
[5] = in vivo; settings: Sprague-Dawley, rat, po, 1 mg/kg
[6] = in vitro; settings: human, liver microsomes
[7] = target: T1, Protein cereblon/Mitogen-activated protein kinase kinase kinase kinase 1 (Homo sapiens, UniProt Q92918+Q96SW2); test: PROTAC activity at CRBN/HPK1 in human Jurkat cells assessed as HPK1 degradation at 0.01 uM measured after 24 hrs by Western blotting analysis; assay type: cell-based
T1 sequence (Q92918 whole entry, looked up): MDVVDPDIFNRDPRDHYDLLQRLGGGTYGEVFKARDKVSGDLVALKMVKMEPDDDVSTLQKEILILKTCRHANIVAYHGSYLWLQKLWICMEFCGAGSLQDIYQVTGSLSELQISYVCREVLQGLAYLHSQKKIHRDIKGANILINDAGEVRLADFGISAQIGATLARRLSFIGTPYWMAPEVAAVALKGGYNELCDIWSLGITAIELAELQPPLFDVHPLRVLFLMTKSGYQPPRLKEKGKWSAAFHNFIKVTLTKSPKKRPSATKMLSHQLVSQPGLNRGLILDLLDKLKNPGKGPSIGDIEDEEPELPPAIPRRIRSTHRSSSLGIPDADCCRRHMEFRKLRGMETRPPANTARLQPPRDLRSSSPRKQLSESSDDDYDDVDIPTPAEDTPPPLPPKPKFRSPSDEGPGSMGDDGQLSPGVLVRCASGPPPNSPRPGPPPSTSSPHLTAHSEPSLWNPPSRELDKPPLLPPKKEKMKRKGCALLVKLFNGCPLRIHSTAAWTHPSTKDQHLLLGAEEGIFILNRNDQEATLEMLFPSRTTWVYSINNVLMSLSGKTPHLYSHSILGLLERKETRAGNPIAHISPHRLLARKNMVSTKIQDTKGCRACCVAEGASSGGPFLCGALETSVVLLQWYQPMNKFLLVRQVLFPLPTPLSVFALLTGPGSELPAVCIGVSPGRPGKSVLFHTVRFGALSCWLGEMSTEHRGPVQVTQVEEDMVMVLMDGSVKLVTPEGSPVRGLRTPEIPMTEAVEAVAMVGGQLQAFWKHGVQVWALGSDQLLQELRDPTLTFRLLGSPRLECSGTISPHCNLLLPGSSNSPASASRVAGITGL
T1 sequence (Q96SW2 whole entry, looked up): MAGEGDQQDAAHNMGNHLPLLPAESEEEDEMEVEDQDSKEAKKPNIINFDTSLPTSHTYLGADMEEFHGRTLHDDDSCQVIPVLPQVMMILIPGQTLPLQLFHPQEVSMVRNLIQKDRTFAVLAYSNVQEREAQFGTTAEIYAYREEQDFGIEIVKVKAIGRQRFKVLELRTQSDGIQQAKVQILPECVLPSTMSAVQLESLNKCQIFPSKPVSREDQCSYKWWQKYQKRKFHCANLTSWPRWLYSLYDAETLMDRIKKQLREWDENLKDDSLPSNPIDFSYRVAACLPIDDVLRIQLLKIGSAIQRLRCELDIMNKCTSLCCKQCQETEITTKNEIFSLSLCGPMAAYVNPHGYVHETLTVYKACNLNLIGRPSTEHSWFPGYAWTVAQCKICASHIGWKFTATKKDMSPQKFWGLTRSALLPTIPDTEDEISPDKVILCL

[8] = Apparent permeability across apical to basolateral side in human Caco-2 cells at 10 uM incubated for 2 hrs by LC-MS/MS analysis; assay type: ADME, cell-based
[9] = Toxicity in C57BL/6J mouse assessed as change in body weight at 0.1 to 1 mg/kg, po bid measured after 28 days; assay type: organism-based; settings: in vivo, 672 h, dose 0.1-1 mg/kg, time 28 day
[10] = Toxicity in C57BL/6J mouse assessed as change in body weight at 100 mg/kg, po qd measured after 28 days; assay type: organism-based; settings: in vivo, 672 h, time 28 day
[11] = target: T1, Protein cereblon/Mitogen-activated protein kinase kinase kinase kinase 1; test: PROTAC activity at CRBN/HPK1 in human Jurkat cells assessed as HPK1 degradation measured after 24 hrs by Western blotting analysis; assay type: cell-based; settings: dose 1-2000 nM
[12] = Drug absorption in mouse at 10 to 100 mg/kg, po; assay type: ADME, organism-based; settings: in vivo, dose 10-100 mg/kg
[13] = Metabolic stability in rat liver microsomes assessed as intrinsic clearance at 1 uM incubated for 45 mins by LC-MS/MS method; assay type: ADME, Microsome; settings: read-out: CLH
[14] = AUC(0 to 24 hrs) in female Sprague-Dawley rat at 2 mg/kg/day, po measured at day 1; assay type: ADME, organism-based; settings: in vivo, time 1 day
[15] = Clearance in rat relative to hepatic blood flow; settings: in vivo
[16] = in vitro; settings: mouse, liver microsomes
[17] = in vivo; settings: C57BL/6J, mouse, po, 10 mg/kg
[18] = tested on: MC-38; test: Antitumor activity against mouse MC38 cells implanted in C57BL/6J mouse assessed as tumor growth inhibition at 100 mg/kg, po QD administered for 4 weeks; assay type: functional; settings: MC-38, 672 h, read-out: TGI
[19] = target: Mitogen-activated protein kinase kinase kinase kinase 4 (Homo sapiens) (UniProt O95819); test: Induction of HGK degradation in human Jurkat cells at 1 to 1000 nM incubated for 24 hrs by Western blotting analysis; assay type: cell-based; settings: dose 1-1000 nM
Mitogen-activated protein kinase kinase kinase kinase 4 (Homo sapiens), sequence (O95819 2-1239 limits assumed): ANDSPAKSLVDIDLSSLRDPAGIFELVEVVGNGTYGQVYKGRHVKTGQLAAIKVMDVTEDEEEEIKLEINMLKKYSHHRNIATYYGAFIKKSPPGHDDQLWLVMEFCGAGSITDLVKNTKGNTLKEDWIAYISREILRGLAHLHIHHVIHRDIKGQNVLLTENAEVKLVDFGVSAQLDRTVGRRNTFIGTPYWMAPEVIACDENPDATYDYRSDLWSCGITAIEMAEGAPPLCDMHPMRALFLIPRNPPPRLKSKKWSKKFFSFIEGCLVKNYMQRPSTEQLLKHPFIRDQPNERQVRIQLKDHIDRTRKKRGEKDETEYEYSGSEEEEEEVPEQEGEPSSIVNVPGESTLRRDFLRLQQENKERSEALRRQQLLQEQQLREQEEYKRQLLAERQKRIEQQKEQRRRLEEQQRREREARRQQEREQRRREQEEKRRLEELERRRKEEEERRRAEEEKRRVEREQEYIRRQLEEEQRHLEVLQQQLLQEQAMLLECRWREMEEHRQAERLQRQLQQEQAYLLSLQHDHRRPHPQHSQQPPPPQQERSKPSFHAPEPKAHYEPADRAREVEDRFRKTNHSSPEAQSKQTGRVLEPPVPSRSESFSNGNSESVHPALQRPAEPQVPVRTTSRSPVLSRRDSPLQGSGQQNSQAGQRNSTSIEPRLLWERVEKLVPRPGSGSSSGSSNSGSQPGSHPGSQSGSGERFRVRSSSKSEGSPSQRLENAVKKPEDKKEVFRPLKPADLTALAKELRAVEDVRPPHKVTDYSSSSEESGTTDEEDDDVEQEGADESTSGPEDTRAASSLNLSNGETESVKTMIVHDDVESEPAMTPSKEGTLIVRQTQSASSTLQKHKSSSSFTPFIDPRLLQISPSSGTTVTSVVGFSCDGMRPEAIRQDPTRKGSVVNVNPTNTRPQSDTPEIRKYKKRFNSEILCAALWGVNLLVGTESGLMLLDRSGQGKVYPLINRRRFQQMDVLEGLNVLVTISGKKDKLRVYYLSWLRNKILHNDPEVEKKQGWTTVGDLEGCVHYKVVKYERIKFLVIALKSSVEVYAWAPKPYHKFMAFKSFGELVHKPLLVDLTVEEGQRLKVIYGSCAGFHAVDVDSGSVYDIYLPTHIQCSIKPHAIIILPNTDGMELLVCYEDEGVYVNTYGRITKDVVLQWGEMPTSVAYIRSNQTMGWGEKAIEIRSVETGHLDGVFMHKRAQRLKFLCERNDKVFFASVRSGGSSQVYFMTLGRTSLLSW

[20] = Metabolic stability in monkey hepatocytes assessed as intrinsic clearance at 1 uM incubated for 90 mins by LC-MS/MS method; assay type: ADME, cell-based, Macaca mulatta, Hepatocyte; settings: rhesus monkey, 1.5 h
[21] = In vivo induction of HPK1 degradation in C57BL/6J mouse spleen at 0.5 mg/kg administered as single dose and measured after 8 to 24 hrs; assay type: functional; settings: time 8-24 hrs
[22] = Volume of distribution at steady state in C57BL/6J mouse at 2 mg/kg, iv measured upto 24 hrs by LC-MS analysis; assay type: ADME, organism-based; settings: in vivo, read-out: Vdss
[23] = Drug distribution in rat lymph node measured after 0.5 to 6 hrs; assay type: ADME, tissue-based; settings: in vivo, time 0.5-6 hrs
[24] = tested on: MC-38; test: Antitumor activity against mouse MC38 cells implanted in C57BL/6J mouse assessed as tumor weight inhibition rate at 0.1 mg/kg, po BID measured after 4 weeks; assay type: functional; design: scale not given: the % may be the effect or the level left
[25] = target: T2, Cytochrome P450 2B6 (Homo sapiens, UniProt P20813); test: Inhibition of CYP2B6 in human liver microsomes using bupropion as substrate in presence of NADPH; assay type: ADME, Microsome
T2 sequence (P20813 whole entry): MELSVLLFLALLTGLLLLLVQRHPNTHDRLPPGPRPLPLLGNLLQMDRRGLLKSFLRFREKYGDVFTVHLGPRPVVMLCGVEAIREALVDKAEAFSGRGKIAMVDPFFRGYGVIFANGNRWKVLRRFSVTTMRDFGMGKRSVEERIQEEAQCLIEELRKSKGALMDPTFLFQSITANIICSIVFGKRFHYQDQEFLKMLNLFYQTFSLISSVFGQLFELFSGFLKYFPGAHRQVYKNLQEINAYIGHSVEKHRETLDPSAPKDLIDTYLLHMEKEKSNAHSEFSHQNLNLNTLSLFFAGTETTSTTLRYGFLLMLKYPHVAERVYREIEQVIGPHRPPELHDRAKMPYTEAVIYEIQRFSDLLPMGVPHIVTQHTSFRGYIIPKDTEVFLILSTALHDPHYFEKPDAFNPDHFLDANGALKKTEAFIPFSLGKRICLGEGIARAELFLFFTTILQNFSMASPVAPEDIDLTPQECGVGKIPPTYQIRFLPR

[26] = in vitro; settings: dog, hepatocytes
[27] = Tmax in female Sprague-Dawley rat at 2 mg/kg/day, po measured at day 14; assay type: ADME, organism-based; settings: in vivo, time 14 day
[28] = Drug absorption in rat at 10 to 100 mg/kg, po; assay type: ADME, organism-based; settings: in vivo, dose 10-100 mg/kg
[29] = Tmax in female Sprague-Dawley rat at 30 mg/kg/day, po measured at day 14; assay type: ADME, organism-based; settings: in vivo, time 14 day
[30] = Tmax in male Sprague-Dawley rat at 100 mg/kg/day, po measured at day 1; assay type: ADME, organism-based; settings: in vivo, time 1 day
[31] = in vitro; settings: mouse, hepatocytes
[32] = Metabolic stability in mouse liver microsomes assessed as intrinsic clearance at 1 uM incubated for 45 mins by LC-MS/MS method; assay type: ADME, Microsome; settings: read-out: CLH
[33] = in vivo; settings: female, Sprague-Dawley, rat, po, 2 mg/kg
[34] = Drug metabolism in rat hepatocytes assessed as phase 1 metabolites formation at 10 uM incubated for 120 mins by UHPLC-UV/MS/MS method; assay type: ADME, cell-based, Hepatocyte; settings: 2 h
[35] = Drug distribution in rat gastrointestinal tract measured after 0.5 to 6 hrs; assay type: ADME, tissue-based; settings: in vivo, time 0.5-6 hrs
[36] = AUC(0 to 24 hrs) in male Sprague-Dawley rat at 30 mg/kg/day, po measured at day 1; assay type: ADME, organism-based; settings: in vivo, time 1 day
[37] = Plasma protein binding in monkey at 10 uM incubated for 6 hrs by equilibrium dialysis based LC-MS/MS method; assay type: ADME, cell-free, Macaca mulatta; settings: rhesus monkey, read-out: PPB (converted)
[38] = tested on: MC-38; test: Antitumor activity against mouse MC38 cells implanted in C57BL/6J mouse assessed as tumor growth inhibition at 0.5 mg/kg, po BID measured after 4 weeks; assay type: functional; settings: MC-38, 672 h, read-out: TGI

Structure (SMILES): O=C1CCN(c2cc(C(=O)N3CCC(CC4CCN(c5ccc(-c6cnc7[nH]cc(-c8cnn(CC(F)(F)F)c8)c7n6)cn5)CC4)CC3)ccc2Cl)C(=O)N1
- Activity [1]: 86.54%
- AUC(0-t) at 24 h [2]: 107000 ng·h/mL
- Activity [3]: 0.8 mg/kg/day
- Cmax at 24 h [4]: 3560 ng/mL
- bioavailability at 24 h [5]: 19.2%
- half-life at 0.75 h, 1 µM [6]: > 5 h
- Activity [7]: Active
- Papp A→B at 2 h, 10 µM [8]: 0.16 ×10⁻⁶ cm/s
- Activity [9]: Non-toxic
- Activity [10]: Non-toxic
- Activity [11]: Dose-dependent-effect
- Drug absorption [12]: Active
- microsomal CLint at 1 µM [13]: 5.62 µL/min/mg
- AUC(0-t) at 24 h [14]: 539 ng·h/mL
- clearance [15]: 16.6 mL/min/kg
- half-life at 0.75 h, 1 µM [16]: 1.73 h
- Cmax at 24 h [17]: 3180 ng/mL
- inhibition in vivo at 100 mg/kg [18]: 56.9%
- Activity [19]: inactive
- CLH [20]: 8.85 µL/min/mg
- Emax at 0.5 mg/kg [21]: 61.3%
- Vd [22]: 0.659 L/kg
- Drug uptake [23]: Active
- Activity [24]: 21.84%
- IC50 [25]: > 10 µM
- half-life at 1.5 h, 1 µM [26]: 3.47 h
- Tmax [27]: 6 h
- Drug absorption [28]: Active
- Tmax [29]: 8.67 h
- Tmax [30]: 7.5 h
- half-life at 1.5 h, 1 µM [31]: 7.62 h
- microsomal CLint at 1 µM [32]: 13.4 µL/min/mg
- AUC at 336 h [33]: 645 ng·h/mL
- Drug metabolism [34]: metabolite_detected
- Drug uptake [35]: Active
- AUC(0-t) at 24 h [36]: 38200 ng·h/mL
- fraction unbound at 6 h, 10 µM [37]: 0.0002
- inhibition in vivo at 0.5 mg/kg [38]: 51.4%
